Literature values as cited in patent publication US20090155363A1, “METHODS FOR ORAL ADMINISTRATION OF ACTIVE DRUGS” (priority 2007, published 2009).

Conditions: drug mixed with foods such as applesauce or vegetable juice, relative to administration of a nizatidine capsule with water

reduction of bioavailability: 30 to 40%
Structure (SMILES): CNC(=C[N+](=O)[O-])NCCSCc1csc(CN(C)C)n1 [nizatidine]
